Source: US8901317B2, “Tryptamine derivatives, their preparation and their use in gastropathy” (Council of Scientific & Industrial Research, priority 2010, dated 2014)

Experiments:
[1] = Ferric reducing antioxidant power (FRAP) assay; settings: for FRAP Value6 min (μM) M ± SD: 6 min; for FRAP Value6 min (μM) M ± SD / FRAP Value65 min (μM) M ± SD: compound at 10 μM relative to ferrous sulfate; for FRAP Value65 min (μM) M ± SD: 65 min
Description: The antioxidant property of different tryptamine derivatives were assessed and compared with the known antioxidants for potency. […] The FRAP assay is based on the measurement of the ability of the substance to reduce Fe^3+ to Fe^2+, greater the reducing ability greater the anti oxidant property. Antioxidants reduce Fe^3+-TPTZ in to blue colored Fe^2+-TPTZ complex, which results in an increase in the absorbance at 595 nm giving a FRAP value. […] Absorbance changes at different time intervals (FIG. 6) as well as at different concentrations (FIG. 7) at time 6 min in the presence of different compounds at 595 nm were measured. FRAP values at 6 min and 65 min were calculated from different tryptamine derivatives and some known antioxidant (Table 1). […] DPPH assay based on the DPPH free radicals scavenging power of the antioxidant molecules. Higher the scavenging power higher will be the antioxidant property.
The assay was performed in a 96-well microplate. FRAP reagent was prepared by mixing of 10 ml acetate buffer (200 mM, pH-3.6), 1 ml of 2,4,6-tris(2-pyridyl)-s-triazine (TPTZ) solution (10 mM in 40 mM HCl) and 1 ml of ferric chloride solution (20 mM) in distilled water. For 1 h the mixture was kept in a water bath at 37° C. In 96-well microplates, 25 μL of the compounds under investigation dissolved (in methanol, some compound dissolved in water) at different concentrations in the range 1-25 μM was placed in triplicate and freshly prepared FRAP solution (175 μL) was added to this sample. A micro plate reader monitored the absorbance at 595 nm at different time intervals for up to 150 min. The absorbance of a mixture 175 μL TRAP sol and 25 μL methanol or water was taken which was subtracted from the absorbance of the samples at each time interval to calculate the absorbance change (ΔA). The FRAP value at time interval t (FRAP valuet) was calculated according to the formula: FRAP valuet(M)=(ΔatFl/ΔatFe^2+)×10^−5 Where ΔatFl is the absorbance change after the time interval t (6 and 65 min) relative to the tested flavonoid at the concentration of 10 μM and ΔatFe^2+ is the absorbance change at the same time interval relative to ferrous sulfate at the same concentration (Pal, C; et al. Free Radic Biol Med, 49(2), 258-267, 2010, Firuzi, O; et al. Biochim. Biophys. Acta 1721:174-184; 2005).

[2] = DPPH free radical scavenging assay
Description: The antioxidant property of different tryptamine derivatives were assessed and compared with the known antioxidants for potency. A range of different synthesized compounds and known anti oxidants, quercetin, ascorbic acid and gallic acid were analyzed by the FRAP assay. The FRAP assay is based on the measurement of the ability of the substance to reduce Fe^3+ to Fe^2+, greater the reducing ability greater the anti oxidant property. Antioxidants reduce Fe^3+-TPTZ in to blue colored Fe^2+-TPTZ complex, which results in an increase in the absorbance at 595 nm giving a FRAP value. […] Absorbance changes at different time intervals (FIG. 6) as well as at different concentrations (FIG. 7) at time 6 min in the presence of different compounds at 595 nm were measured. FRAP values at 6 min and 65 min were calculated from different tryptamine derivatives and some known antioxidant (Table 1). […] DPPH assay based on the DPPH free radicals scavenging power of the antioxidant molecules. Higher the scavenging power higher will be the antioxidant property. […] This assay was performed in presence of some known antioxidants such as ascorbic acid, quercetin and gallic acid.
2,2-Diphenyl-1-Picrylhydrazyl (DPPH) is a stable free radical that can accept hydrogen radical or an electron and become a stable diamagnetic molecule. The antioxidants can scavenge the DPPH by donating hydrogen as visualized by discoloration of the DPPH radical from purple to yellow (Pal, C; et al. Free Radic Biol Med, 49(2), 258-267; 2010, Ben Farhat, M.; et al. J. Agric. Food Chem. 57:10349-10356; 2009, Han, J; et al. Wei Sheng Yan Jiu 38:596-598; 2009). The assay system contained 1 mL of compounds under investigation dissolved (in methanol, some compound dissolved in water) at different concentrations in the range 10-100 μM solution and 4 ml of DPPH (0.15 mM) in methanol (80% in water v/v) and mixed well. It was allowed to stand for 30 min at 27° C. away from light. Ascorbic acid at the same concentration was taken as positive control. The absorbance of the solution was measured spectrophotometrically at 517 nm and from the decrease of absorption; the antioxidant activity of different tryptamine derivatives were determined.

[3] = test system: indomethacin-induced gastric mucosal damage; assay: Indomethacin-induced gastric mucosal damage (ulcer index, histology); assay type: in vivo, Sprague-Dwaley rats; settings: for gastroprotective effect compared with SEGA (3a): 6.9 mg kg^−1 intraperitoneally, indomethacin-induced gastropathy; for Gastric mucosal damage (ulcer index): rats
Description: Sprague-Dwaley rats (180-220 gm) were used for this study. Each group (control or experimental) of animals was maintained at 24±2° C. with 12 hrs lights and dark cycle. The animals were fasted for 24 hrs before the start of experiments. They were provided with water ad libitum to avoid food-induced increased acid secretion and its effect on gastric lesions. Gastric mucosal ulcer was developed by indomethacin as described (Pal, C; et al. Free Radic Biol Med, 49(2), 258-267; 2010, Biswas, K.; et al. J. Biol. Chem. 278:10993-11001; 2003, Bandyopadhyay, U.; et al. Life Sci. 71:2845-2865; 2002). Briefly, all the animals were divided into control, indomethacin and test compound group. Oral administration of indomethacin at a dose of 48 mg kg^−1 b.w was given to the fasted animals to induce gastric ulcer. […] Control group received vehicle only but no indomethacin. After 4 hrs of indomethacin treatment, the animals were sacrificed under proper euthanasia and stomachs were collected. The mucosal injury was scored as ulcer index as follows: 0=no pathology; 1=one pinhead ulcer. The sum of the total scores divided by the number of animals gave the ulcer index. All the in vivo studies were done in accordance with the institute animal ethical committee guidelines. To see the effect of SEGA on diclofenac induced gastric mucosal injury, gastric mucosal damage was developed by the oral administration of diclofenac (75 mg kg^−1) and the rest of the experiment was carried out in a similar way as described for indomethacin. Diclofenac produced pinhead ulcer like indomethacin and the mucosal injury was scored as ulcer index as described above. Ethanol-induced gastric mucosal injury was developed with oral administration of 1 ml of 50% ethanol (Banerjee, R. K. (2002) Life Sci 71, 2845-2865) and after 4 hrs the animals were sacrificed and cold-restrain stress induced mucosal injury was developed by immobilizing the animals at 4° C. for 3.5 hrs (Banerjee, R. K. (2002) Life Sci 71, 2845-2865, (2003) J Biol Chem 278, 10993-11001).
Stomach tissues from the animals of different groups were washed first washed several times with PBS (pH 7.4) and later fixed in 10% buffered formalin for 12 hrs at 25° C. The formalin-fixed tissues were then dehydrated and embedded in paraffin for preparing semi-thin sections (Maity, P.; et al. J. Biol. Chem. 283:14391-14401; 2008). The semi-thin sections were prepared using a microtome and taken over poly-L-lysine coated glass slide for hematoxylene-eosine staining. The stained sections were observed under microscope (Leica DM-2500, Germany) and were documented by high-resolution digital camera.

rats = assay: Toxicity (death) after injection in rats; assay type: in vivo
[4] = compounds 100 μM, 517 nm (Table 2)
[5] = compound 6.9 mg kg^−1 intraperitoneally before indomethacin 48 mg kg^−1 oral

Structure (SMILES)	FRAP Value6 min (μM) M ± SD [1] [µM]	FRAP Value65 min (μM) M ± SD [1] [µM]	Absorbance change (ΔA) at 30 min [2, 4]	also measured
COc1ccc2[nH]cc(CCNC(=O)c3cc(O)c(O)c(O)c3)c2c1 [Compound 3c, 3,4,5-trihydroxy-N-(2-(5-methoxy-1H-indol-3-yl)ethyl)benzamide]	15.32 ± 0.46	21.96 ± 2.6	0.35 ± 0.08	Absorbance change (ΔA) at 30 min ([2]; concentration 10 μM (Table 3)): 0.18 ± 0.02; Absorbance change (ΔA) at 30 min ([2]; concentration 30 μM (Table 3)): 0.24 ± 0.03; Absorbance change (ΔA) at 30 min ([2]; concentration 50 μM (Table 3)): 0.28 ± 0.05; Absorbance change (ΔA) at 30 min ([2]; concentration 80 μM (Table 3)): 0.31 ± 0.07; Absorbance change (ΔA) at 30 min ([2]; concentration 100 μM (Table 3)): 0.35 ± 0.08; gastroprotective effect compared with SEGA (3a) [3]: lesser gastroprotective effect; Gastric mucosal damage (ulcer index) [3, 5]: 39 ± 2
O=C(NCCc1c[nH]c2ccccc12)c1cc(O)c(O)c(O)c1 [Compound 3b, N-(2-(1H-indol-3-yl)ethyl)-3,4,5-trihydroxybenzamide]	14.32 ± 0.36	19.65 ± 2.1	0.31 ± 0.06	Absorbance change (ΔA) at 30 min ([2]; concentration 10 μM (Table 3)): 0.16 ± 0.02; Absorbance change (ΔA) at 30 min ([2]; concentration 30 μM (Table 3)): 0.21 ± 0.05; Absorbance change (ΔA) at 30 min ([2]; concentration 50 μM (Table 3)): 0.23 ± 0.04; Absorbance change (ΔA) at 30 min ([2]; concentration 80 μM (Table 3)): 0.28 ± 0.03; Absorbance change (ΔA) at 30 min ([2]; concentration 100 μM (Table 3)): 0.31 ± 0.06; gastroprotective effect compared with SEGA (3a) [3]: lesser gastroprotective effect; Gastric mucosal damage (ulcer index) [3, 5]: 42 ± 2
O=c1c(O)c(-c2ccc(O)c(O)c2)oc2cc(O)cc(O)c12 [Quercetin, reference compound]	28.11 ± 1.00	48.55 ± 4.85		
COc1ccc2[nH]cc(CCNC(=O)Cc3c[nH]c4ccccc34)c2c1 [Compound 2i, 2-(1H-indol-3-yl)-N-(2-(5-methoxy-1H-indol-3-yl)ethyl) acetamide]	1.94 ± 0.04	2.5 ± 0.34	0.12 ± 0.02	
COc1ccc2[nH]cc(CCNC(=O)/C=C/c3ccc(O)cc3)c2c1 [Compound 2h, (E)-3-(4-hydroxyphenyl)-N-(2-(5-methoxy-1H-indol-3-yl)ethyl)acrylamide]	1.87 ± 0.13	2.93 ± 1.43	0.11 ± 0.03	
NCCc1c[nH]c2ccc(OC(=O)c3cc(O)c(O)c(O)c3)cc12 [Compound 4d, 3-(2-aminoethyl)-1H-indol-5-yl 3,4,5-trihydroxybenzoate]	24.02 ± 1.98	35.40 ± 3.25	0.38 ± 0.07	Absorbance change (ΔA) at 30 min ([2]; concentration 10 μM (Table 3)): 0.18 ± 0.01; Absorbance change (ΔA) at 30 min ([2]; concentration 30 μM (Table 3)): 0.27 ± 0.03; Absorbance change (ΔA) at 30 min ([2]; concentration 50 μM (Table 3)): 0.31 ± 0.05; Absorbance change (ΔA) at 30 min ([2]; concentration 80 μM (Table 3)): 0.33 ± 0.05; Absorbance change (ΔA) at 30 min ([2]; concentration 100 μM (Table 3)): 0.38 ± 0.07; gastroprotective effect compared with SEGA (3a) [3]: lesser gastroprotective effect; Gastric mucosal damage (ulcer index) [3, 5]: 41 ± 2.5
NCCc1c[nH]c2ccc(O)cc12 [Serotonin, 5-hydroxytryptamine, reference compound]	21.61 ± 3.65	35.48 ± 6.55		death of rats after injection (rats; i.p. 25 mg kg^−1): all the rats were found to be dead; death of rats after injection (rats; i.p. 50 mg kg^−1): all the rats were found to be dead; reducing ability (Fe^3+ to Fe^2+) / antioxidant property in words ([1]; compared to other tryptamine derivatives and known antioxidants): very little antioxidant property
O=C1O[C@H]([C@@H](O)CO)C(O)=C1O [Ascorbic acid, reference compound]	15.46 ± 0.07	15.89 ± 2.24		
O=C(Cc1c[nH]c2ccccc12)NCCc1c[nH]c2ccccc12 [Compound 2f, N-(2-(1H-indol-3-yl)ethyl)-2-(1H-indol-3-yl)acetamide]	2.44 ± 0.24	3.33 ± 0.49	0.13 ± 0.03	
O=C(Cc1c[nH]c2ccccc12)NCCc1c[nH]c2ccc(O)cc12 [Compound 2c, N-(2-(5-hydroxy-1H-indol-3-yl)ethyl)-2-(1H-indol-3-yl)acetamide]	2.48 ± 0.10	3.57 ± 0.41	0.14 ± 0.04	
O=C(/C=C/c1ccc(O)cc1)NCCc1c[nH]c2ccccc12 [Compound 2e, (E)-N-(2-(1H-indol-3-yl)ethyl)-3-(4-hydroxyphenyl)acrylamide]	2.45 ± 0.19	5.60 ± 1.02	0.11 ± 0.02	
COc1ccc2c(c1)c(CC(=O)O)c(C)n2C(=O)c1ccc(Cl)cc1 [Indomethacin, reference compound]				Gastric mucosal damage (ulcer index) ([3]; indomethacin 48 mg kg^−1 alone, oral): 61 ± 3
